Assay results as given in the supplement of paper PMC10307832.

compound: O=C(Nc1cc(C(F)(F)F)cc(C(F)(F)F)c1)c1cc(Cl)ccc1O [IMD-0354] + CC(=O)Nc1cccc(-n2c(=O)n(C3CC3)c(=O)c3c(Nc4ccc(I)cc4F)n(C)c(=O)c(C)c32)c1 [Trametinib] (partner 0.02 µM); experiment: relative viability (nuclei count vs DMSO), 5 days (fraction); higher = more cells survive; conditions: first compound 4 µM
How it was run: (§1)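 Nuclei were stained with Hoechst during a one-step fixation (final 0.05% Triton X-100, 1% formaldehyde, 1 ug/ml Hoechst) carried out 5 days after dosing, then counted on 4× images. The cells, lung cancer lines in 1536-well plates, had been dosed by pin tool the day after seeding with one drug alone or a fixed anchor-drug dose plus five library-drug doses (not always all listed) in √10 steps. Relative viability is the nuclei count in treated wells divided by that in vehicle wells, and each value is the median of duplicate plates.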

Point of comparison: HCC-78, relative viability 0.334. Against it:
- NCI-H2170 — higher, 0.481

compound: O=C(Nc1cc(C(F)(F)F)cc(C(F)(F)F)c1)c1cc(Cl)ccc1O [IMD-0354] + CCNC(=O)c1noc(-c2cc(C(C)C)c(O)cc2O)c1-c1ccc(CN2CCOCC2)cc1 [Luminespib] (partner 0.01 µM); experiment: as above; conditions: first compound 0.04 µM
How it was run: as §1

Point of comparison: NCI-H2170, relative viability 0.754. Against it:
- NCI-H522 — higher, 1.03
- NCI-H1623 — lower, 0.405
- NCI-H727 — lower, 0.344
- NCI-H1650 — lower, 0.215
- NCI-H1993 — higher, 0.852
- SK-LU-1 — lower, 0.178
- NCI-H838 — lower, 0.571
- NCI-H2342 — higher, 0.771
- ChaGo-K-1 — lower, 0.639
- SW 900 — lower, 0.187
- NCI-H1563 — lower, 0.232
- ABC-1 — lower, 0.381

same assay, conditions: first compound 0.1265 µM

Point of comparison: SK-LU-1, relative viability 0.169. Against it:
- NCI-H522 — higher, 0.908
- NCI-H1623 — higher, 0.369
- NCI-H727 — higher, 0.295
- NCI-H1650 — higher, 0.208
- NCI-H1993 — higher, 0.701
- NCI-H838 — higher, 0.246
- NCI-H2342 — higher, 0.746
- ChaGo-K-1 — higher, 0.566
- SW 900 — lower, 0.162
- NCI-H1563 — higher, 0.57
- NCI-H2170 — higher, 0.746
- ABC-1 — higher, 0.82

same assay, conditions: first compound 0.4 µM

Point of comparison: ChaGo-K-1, relative viability 0.364. Against it:
- NCI-H522 — higher, 1.2
- NCI-H1623 — higher, 0.461
- NCI-H727 — higher, 0.371
- NCI-H1650 — lower, 0.171
- NCI-H1993 — higher, 0.623
- SK-LU-1 — lower, 0.244
- NCI-H838 — lower, 0.27
- NCI-H2342 — higher, 0.629
- SW 900 — lower, 0.178
- NCI-H1563 — higher, 0.5
- NCI-H2170 — higher, 0.491
- ABC-1 — lower, 0.32

same assay, conditions: first compound 1.265 µM

Point of comparison: NCI-H838, relative viability 0.217. Against it:
- NCI-H522 — higher, 0.813
- NCI-H1623 — higher, 0.332
- NCI-H727 — lower, 0.191
- NCI-H1650 — lower, 0.196
- NCI-H1993 — higher, 0.483
- SK-LU-1 — lower, 0.149
- NCI-H2342 — higher, 0.699
- ChaGo-K-1 — higher, 0.223
- SW 900 — lower, 0.143
- NCI-H1563 — higher, 0.492
- NCI-H2170 — higher, 0.764
- ABC-1 — higher, 0.237

same assay, conditions: first compound 4 µM

Point of comparison: SK-LU-1, relative viability 0.169. Against it:
- NCI-H522 — higher, 0.505
- NCI-H1623 — higher, 0.287
- NCI-H727 — higher, 0.302
- NCI-H1650 — higher, 0.176
- NCI-H1993 — higher, 0.619
- NCI-H838 — higher, 0.244
- NCI-H2342 — higher, 0.388
- ChaGo-K-1 — higher, 0.228
- SW 900 — lower, 0.161
- NCI-H1563 — higher, 0.206
- NCI-H2170 — higher, 0.231
- ABC-1 — higher, 0.307

compound: O=C(Nc1cc(C(F)(F)F)cc(C(F)(F)F)c1)c1cc(Cl)ccc1O [IMD-0354] + C[C@]1(O)C[C@@H](c2nc(-c3ccc4ccc(-c5ccccc5)nc4c3)c3c(N)nccn32)C1 [Linsitinib] (partner 1 µM); experiment: as above; conditions: first compound 0.04 µM
How it was run: as §1

Point of comparison: A549, relative viability 0.782. Against it:
- NCI-H727 — lower, 0.161
- EBC-1 — higher, 0.845
- NCI-H1703 — higher, 1.38
- NCI-H1993 — lower, 0.671
- SK-LU-1 — higher, 1.41
- NCI-H838 — higher, 1.18
- Calu-6 — higher, 0.92
- HCC-366 — higher, 0.947
- IA-LM — lower, 0.653
- HCC-78 — lower, 0.471
- NCI-H1299 — higher, 0.933
- NCI-H1563 — higher, 1.25
- ABC-1 — higher, 0.858

same assay, conditions: first compound 0.1265 µM

Point of comparison: ABC-1, relative viability 0.826. Against it:
- NCI-H727 — lower, 0.257
- EBC-1 — lower, 0.703
- NCI-H1703 — lower, 0.583
- NCI-H1993 — lower, 0.747
- SK-LU-1 — higher, 0.863
- NCI-H838 — higher, 0.969
- Calu-6 — higher, 0.859
- HCC-366 — higher, 0.85
- IA-LM — lower, 0.486
- A549 — lower, 0.581
- HCC-78 — lower, 0.495
- NCI-H1299 — higher, 0.895
- NCI-H1563 — higher, 1.06

same assay, conditions: first compound 0.4 µM

Point of comparison: NCI-H1703, relative viability 0.888. Against it:
- NCI-H727 — lower, 0.281
- EBC-1 — lower, 0.741
- NCI-H1993 — lower, 0.696
- SK-LU-1 — lower, 0.621
- NCI-H838 — lower, 0.505
- Calu-6 — lower, 0.862
- HCC-366 — lower, 0.221
- IA-LM — lower, 0.745
- A549 — lower, 0.264
- HCC-78 — lower, 0.421
- NCI-H1299 — lower, 0.839
- NCI-H1563 — higher, 1.11
- ABC-1 — lower, 0.57

same assay, conditions: first compound 1.265 µM

Point of comparison: EBC-1, relative viability 0.113. Against it:
- NCI-H727 — higher, 0.206
- NCI-H1703 — higher, 0.125
- NCI-H1993 — higher, 0.491
- SK-LU-1 — higher, 0.24
- NCI-H838 — higher, 0.47
- Calu-6 — lower, 0.0995
- HCC-366 — higher, 0.365
- IA-LM — lower, 0.0945
- A549 — higher, 0.439
- HCC-78 — higher, 0.486
- NCI-H1299 — higher, 0.168
- NCI-H1563 — higher, 0.784
- ABC-1 — higher, 0.335

same assay, conditions: first compound 4 µM

Point of comparison: NCI-H838, relative viability 0.324. Against it:
- NCI-H727 — lower, 0.233
- EBC-1 — lower, 0.164
- NCI-H1703 — lower, 0.141
- NCI-H1993 — higher, 0.567
- SK-LU-1 — lower, 0.264
- Calu-6 — lower, 0.0777
- HCC-366 — lower, 0.0421
- IA-LM — lower, 0.16
- A549 — lower, 0.0949
- HCC-78 — lower, 0.276
- NCI-H1299 — lower, 0.158
- NCI-H1563 — higher, 0.457
- ABC-1 — lower, 0.28
